Data on two compounds can be found in US6995170B1, “Semi-hydrochloride of 8-cyano-1-cyclopropyl-7-(1S,6S-2,8-diazabicyclo[4.3.0]nonan-8-yl)-6-fluoro-1, 4-dihydro-4-oxo-3-quinolinecarboxylic acid” (Bayer Aktiengesellschaft, priority 1998, dated 2006).

Molecules are shown by their SMILES. Where a name gives a salt, the structure may show the parent alone.

The nature of the series: Solubility in water (strength of solutions that can be prepared).

Consider `N#Cc1c(N2C[C@@H]3CCCN[C@@H]3C2)c(F)cc2c(=O)c(C(=O)O)cn(C3CC3)c12` [CCDC hydrochloride], for which the “strength of solutions in water that can be prepared (solubility in water)” value was “approximately 2.8 % (w/w)”. As for `N#Cc1c(N2C[C@@H]3CCCN[C@@H]3C2)c(F)cc2c(=O)c(C(=O)O)cn(C3CC3)c12` [CCDC, 8-Cyano-1-cyclopropyl-7-(1S,6S-2,8-diazabicyclo[4.3.0]nonan-8-yl)-6-fluoro-1,4-dihydro-4-oxo-3-quinolinecarboxylic acid], the entry is “about 0.02 % (w/w)”.
